Holding throughout (assay type): cell-based
One assay has as its system P-388. In words: Cancer cell growth inhibition, murine P388 lymphocytic leukemia cell line. The note with it: Mouse leukemia cell P-388. Further details: unit not given here. From the text:
(§1) The extraordinary inhibition of cell growth shown by the tetrapeptide w-aminoalkylamides 6a-d against six major types of human cancer and against the murine P388 lymphocytic leukemia cell line has been presented in Table I.

A further assay relates to OVCAR-3. In words: Human cancer cell growth inhibition, ovarian OVCAR-3.
Excerpt: (§2) Only two hundred years ago, many diseases ravaged humankind. Many of these diseases have been controlled or eradicated. In the development of the means to treat or control these diseases, work with the appropriate common experimental animals was of critical importance. With the various types of cancers, and with the HIV virus, such work is presently ongoing. The research for the treatment of various types of cancer is coordinated by the National Cancer Institute (NCI). NCI, as a government entity, has been charged with assisting anti-cancer research. To establish whether a substance has anti cancer activity, NCI has established a protocol. This protocol, which involves testing a substance against a cell line panel containing 60 human tumor cell lines, has been verified, and is accepted in scientific circles. This protocol, and the established statistical means of evaluating the results obtained therefrom have been amply described in the literature. See e.g. Principles & Practice of Oncology PPO Updates, Volume 3, Number 10, October 1989, by Michael R. Boyd, M. D., Ph.D., for a description of the protocol. The statistical analysis is explained in “Display and Analysis of Patterns of Differential Activity of Drugs Against Human Tumor Cell Lines: Development of Mean Graph and COMPARE Algorithm” Journal of the National Cancer Institute Reports Vol. 81, No. 14, Pg. 1088, July 14, 1989, by K. D. Paull et al. Both articles are incorporated herein by this reference as if fully set forth.
as §1

Another assay concerns SF-295. In words: Human cancer cell growth inhibition, CNS SF-295.
Excerpt: as §2, §1

The test system of the next assay is A498. In words: Human cancer cell growth inhibition, renal A498.
Excerpt: as §2, §1

Another assay concerns NCI-460. In words: Human cancer cell growth inhibition, Lung-NSC NCI-460.
Excerpt: as §2, §1

The subject of a further assay is KM20L2. Nature of the assay: Human cancer cell growth inhibition, colon KM20L2.
Excerpt: as §2, §1

The test system of a further assay is SK-MEL-3. Nature of the assay: Human cancer cell growth inhibition, melanoma SK-MEL-3.
Excerpt: as §2, §1

The test system of another assay is human cancer cell line. In words: Human cancer cell line activity compared to dolastatin 10.

In brackets after ≈: the same amount, converted by molar mass.

The source of these data is US6569834B1, “Elucidation and synthesis of antineoplastic tetrapeptide w-aminoalkyl-amides” (priority 1992, dated 2003).

In general, TGI refers to the concentration at which net growth stops. Take `CC[C@H](C)[C@@H]([C@@H](CC(=O)N1CCC[C@H]1[C@H](OC)[C@@H](C)C(=O)NCCc1ccccn1)OC)N(C)C(=O)[C@@H](NC(=O)[C@H](C(C)C)N(C)C)C(C)C` [Peptide 6a, [2S-[1[1R*(R*),2S*],2R*[1S*,2S*]]]-N,N-dimethyl-L-valyl-N-[2-methoxy-4-[2-[1-methoxy-2-methyl-3-oxo-3-[[2-(2-pyridyl)ethyl]amino]propyl]-1-pyrrolidinyl-1-(methylpropyl)-4-oxobutyl]-N-methyl-L-valineamide]: the “Cancer cell growth inhibitory activity” value in the assay with P-388 came out at 0.000713. Further, the GI-50 with OVCAR-3 came to 0.000039 µg/mL; with SF-295, 0.00035 µg/mL; with A498 it was 0.00043 µg/mL; with NCI-460 it was 0.00024 µg/mL; with KM20L2 it was 0.000062 µg/mL; in the assay with SK-MEL-3 it was 0.000065 µg/mL. The TGI is 0.21 ng/mL (≈ 0.000299 µM) in the assay with OVCAR-3; less than 10 ng/mL with SF-295; less than 10 ng/mL in the assay with A498; 0.8 ng/mL (≈ 0.00114 µM) in the assay with NCI-460; 1.1 ng/mL (≈ 0.00156 µM) with KM20L2; 0.77 ng/mL (≈ 0.0011 µM) in the assay with SK-MEL-3.

Regarding `CC[C@H](C)[C@@H]([C@@H](CC(=O)N1CCC[C@H]1[C@H](OC)[C@@H](C)C(=O)NCCN1CCOCC1)OC)N(C)C(=O)[C@@H](NC(=O)[C@H](C(C)C)N(C)C)C(C)C` [Peptide 6b, [2S-[1[1R*(R*),2S*],2R*[1S*,2S*]]]-N,N-dimethyl-L-valyl-N-[2-methoxy-4-[2-[1-methoxy-2-methyl-3-oxo-3-[[2-(4-morpholino)ethyl]amino]propyl]-1-pyrrolidinyl-1-(methylpropyl)-4-oxobutyl]-N-methyl-L-valineamide], the “Cancer cell growth inhibitory activity” value with P-388 is 0.0736. The GI-50 in the assay with OVCAR-3, with SF-295, in the assay on A498, in the assay on NCI-460, in the assay with KM20L2 and in the assay with SK-MEL-3 was less than 0.0001 µg/mL in each case. For the same compound, the TGI with OVCAR-3, in the assay on SF-295, in the assay on A498, in the assay on NCI-460, in the assay with KM20L2 and in the assay with SK-MEL-3 was less than 0.1 ng/mL in each case.

As to `CC[C@H](C)[C@@H]([C@@H](CC(=O)N1CCC[C@H]1[C@H](OC)[C@@H](C)C(=O)NCCN(C)C)OC)N(C)C(=O)[C@@H](NC(=O)[C@H](C(C)C)N(C)C)C(C)C` [Peptide 6c, [2S-[1[1R*(R*),2S*],2R*[1S*,2S*]]]-N,N-dimethyl-L-valyl-N-[2-methoxy-4-[2-[1-methoxy-2-methyl-3-oxo-3-[[2-dimethylamino-ethyl]amino]propyl]-1-pyrrolidinyl-1-(methylpropyl)-4-oxobutyl]-N-methyl-L-valineamide], the “Cancer cell growth inhibitory activity” value with P-388 is listed as less than 0.1. Besides, the GI-50 in the assay with OVCAR-3 is 0.0028 µg/mL; in the assay on SF-295, 0.0033 µg/mL; with A498 it was 0.0025 µg/mL; with NCI-460, 0.0051 µg/mL; in the assay with KM20L2 it was less than 0.01 µg/mL; with SK-MEL-3 it was less than 0.01 µg/mL. Besides, the TGI is 8.6 ng/mL (≈ 0.0129 µM) in the assay with OVCAR-3; less than 10 ng/mL in the assay on SF-295; 5.6 ng/mL (≈ 0.00837 µM) in the assay with A498; less than 10 ng/mL in the assay on NCI-460; less than 10 ng/mL with KM20L2; less than 10 ng/mL in the assay with SK-MEL-3.

For the compound `CC[C@H](C)[C@@H]([C@@H](CC(=O)N1CCC[C@H]1[C@H](OC)[C@@H](C)C(=O)NCCCN(C)C)OC)N(C)C(=O)[C@@H](NC(=O)[C@H](C(C)C)N(C)C)C(C)C` [Peptide 6d, [2S-[1[1R*(R*),2S*],2R*[1S*,2S*]]]-N,N-dimethyl-L-valyl-N-[2-methoxy-4-[2-[1-methoxy-2-methyl-3-oxo-3-[[3-dimethylamino-propyl]amino]propyl]-1-pyrrolidinyl-1-(methylpropyl)-4-oxobutyl]-N-methyl-L-valineamide], the “Cancer cell growth inhibitory activity” value in the assay with P-388 is recorded as 0.881. In addition, the GI-50 in the assay on OVCAR-3 is less than 0.01 µg/mL; in the assay with SF-295 it was less than 0.01 µg/mL; in the assay on A498, less than 0.01 µg/mL; with NCI-460, 0.0072 µg/mL; with KM20L2 it was less than 0.01 µg/mL; in the assay with SK-MEL-3, less than 0.01 µg/mL. In addition, the TGI in the assay on OVCAR-3, in the assay on SF-295, with A498, in the assay on NCI-460, in the assay with KM20L2 and in the assay with SK-MEL-3 was less than 10 ng/mL throughout.

For the compound R-Doe-isodolastatin 10, the “human cancer cell line activity as compared to dolastatin 10” value with human cancer cell line is given as “did not show any significant difference”.
